Values joined by “and” are separate entries in the source; they are usually repeats but may differ in a detail not shown here. Equal values may be shown once.
How the values were obtained:
[1] = tested on: L1210; assay: In vivo antitumor activity against L1210 leukemia in 5 mice measured as Increased life span at 90 mg/kg.; format: functional; conditions: Mus musculus
[2] = tested on: Mus musculus; assay: Average weight of the mouse after treating with 90 mg/kg dose for 1 day.; format: functional
[3] = tested on: L1210; assay: In vivo antitumor activity against L1210 leukemia in 5 mice measured as Increased life span at 45 mg/kg.; format: functional; conditions: Mus musculus
[4] = tested on: Mus musculus; assay: Average weight of the mouse after treating with 45 mg/kg dose for 1 day.; format: functional
[5] = tested on: Mus musculus; assay: Average weight of the mouse after treating with 90 mg/kg dose for 7 days.; format: functional
[6] = tested on: L1210; assay: In vivo antitumor activity against L1210 leukemia in 5 mice measured as median survival range at 90 mg/kg; Value ranges from(15-24); format: functional, Mus musculus
[7] = tested on: L1210; assay: In vivo antitumor activity against L1210 leukemia in 18 mice measured as T/C values(days); T/C = 18/11; format: functional, Mus musculus
[8] = tested on: L1210; assay: In vivo antitumor activity against L1210 leukemia in 20 mice measured as T/C values(days); T/C = 20/11; format: functional, Mus musculus
[9] = tested on: Mus musculus; assay: Average weight of the mouse after treating with 45 mg/kg dose for 7 days.; format: functional
[10] = tested on: L1210; assay: In vivo antitumor activity against L1210 leukemia in 5 mice measured as median survival range at 45 mg/kg; Value ranges from(14-19); format: functional, Mus musculus
[11] = tested on: L1210; assay: In vivo anti tumor activity against L1210 leukemia in 5 mice measured as Increased life span at 15 mg/kg; format: functional; conditions: Mus musculus
[12] = tested on: L1210; assay: In vivo anti tumor activity against L1210 leukemia in 5 mice measured as Increased life span at 7.5 mg/kg; format: functional; conditions: Mus musculus
[13] = tested on: L1210; assay: In vivo antitumor activity against L1210 leukemia in 5 mice measured as median survival range at 7.5 mg/kg; Value ranges from (10-14); format: functional, Mus musculus
[14] = tested on: Mus musculus; assay: Average weight of the mouse after treating with 7.5 mg/kg dose for 1 day; format: functional
[15] = tested on: Mus musculus; assay: Average weight change in mouse after treating with 7.5 mg/kg dose for 7 days.; format: functional
[16] = tested on: Mus musculus; assay: In vivo antitumor activity against L1210 leukemia in 5 mice measured as weight change in 7 days(% weight); format: functional
[17] = tested on: Mus musculus; assay: Average weight of the mouse after treating with 15 mg/kg dose for 1 day; format: functional
[18] = tested on: L1210; assay: In vivo antitumor activity against L1210 leukemia in 5 mice measured as median survival range at 15 mg/kg; Value ranges from (14-18); format: functional, Mus musculus
[19] = tested on: L1210; assay: In vivo antitumor activity against L1210 leukemia in 17 mice measured as T/C values; T/C = 17/9; format: functional, Mus musculus
[20] = tested on: Mus musculus; assay: Average weight of the mouse after treating with 10 mg/kg dose for 1 day.; format: functional; set-up: unit not given here
[21] = tested on: Mus musculus; assay: Average weight of the mouse after treating with 20 mg/kg dose for 7 days.; format: functional
[22] = tested on: Mus musculus; assay: Average weight of the mouse after treating with 40 mg/kg dose for 7 day.; format: functional
[23] = tested on: L1210; assay: In vivo antitumor activity against L1210 leukemia in 5 mice measured as median survival range at 10 mg/kg; Value ranges from (13-18).; format: functional, Mus musculus
[24] = tested on: Mus musculus; assay: Average weight of the mouse after treating with 20 mg/kg dose for 1 day.; format: functional; set-up: unit not given here
[25] = tested on: Mus musculus; assay: Average weight of the mouse after treating with 40 mg/kg dose for 1 day.; format: functional; set-up: unit not given here
[26] = tested on: Mus musculus; assay: Average weight of the mouse after treating with 10 mg/kg dose for 7 day.; format: functional
[27] = tested on: L1210; assay: In vivo antitumor activity against L1210 leukemia in 5 mice measured as Increased life span at 20 mg/kg.; format: functional; conditions: Mus musculus
[28] = tested on: L1210; assay: In vivo antitumor activity against L1210 leukemia in 5 mice measured as T/C values; T/C = 23/9; format: functional, Mus musculus
[29] = tested on: L1210; assay: In vivo antitumor activity against L1210 leukemia in 5 mice measured as Increased life span at 10 mg/kg.; format: functional; conditions: Mus musculus
[30] = tested on: L1210; assay: In vivo antitumor activity against L1210 leukemia in 5 mice measured as median survival range at 40 mg/kg; Value ranges from(15-23); format: functional, Mus musculus
[31] = tested on: L1210; assay: In vivo antitumor activity against L1210 leukemia in 5 mice measured as median survival range at 20 mg/kg; Value ranges from (14-23); format: functional, Mus musculus
[32] = tested on: L1210; assay: In vivo antitumor activity against L1210 leukemia in 5 mice measured as Increased life span at 40 mg/kg.; format: functional; conditions: Mus musculus
[33] = tested on: L1210; assay: In vivo antitumor activity against L1210 leukemia in 12 mice measured as T/C values(days); T/C = 12/9; format: functional, Mus musculus
[34] = tested on: Mus musculus; assay: Average weight change in mouse after treating with 20 mg/kg dose for 7 days.; format: functional; set-up: unit not given beside the values; conditions: 20 mg/kg
[35] = tested on: L1210; assay: In vivo antitumor activity against L1210 leukemia in 5 mice measured as median survival range at 10 mg/kg; Value ranges from (10-15); format: functional, Mus musculus
[36] = tested on: L1210; assay: In vivo antitumor activity against L1210 leukemia in 5 mice measured as median survival range at 20 mg/kg; Value ranges from (14-18); format: functional, Mus musculus
[37] = tested on: L1210; assay: In vivo antitumor activity against L1210 leukemia in 14 mice measured as T/C values; T/C = 14/9; format: functional, Mus musculus

SMILES: CCCCOC(=O)CCC(NC(=O)c1cc(Cl)c(N(C)Cc2cnc3nc(N)nc(N)c3n2)c(Cl)c1)C(=O)OCCCC (stereo not given)
- ILS at 90 mg/kg [1]: 82%
- Average weight [2]: 27.8
- ILS at 45 mg/kg [3]: 64%
- Average weight [4]: 25
- Weight change [5]: 3.8
- Range [6]: 24
- T/C [7]: 11
- T/C [8]: 11
- Weight change [9]: 1
- Range [10]: 19

SMILES: CCCCCCCCOC(=O)CCC(NC(=O)c1ccc(N(C)Cc2cnc3nc(N)nc(N)c3n2)cc1)C(=O)OCCCCCCCC (stereo not given)
- ILS at 15 mg/kg [11]: 66%
- ILS at 7.5 mg/kg [12]: 44%
- Range [13]: 14
- Average weight [14]: 26.4
- Weight change [15]: 0.4
- Weight change [16]: 0.8
- Average weight [17]: 25.2
- Range [18]: 18

SMILES: Cc1ccc(C)c(COC(=O)CCC(NC(=O)c2ccc(N(C)Cc3cnc4nc(N)nc(N)c4n3)cc2)C(=O)OCc2cc(C)ccc2C)c1 (stereo not given)
- T/C [19]: 9
- Average weight [20]: 23
- Weight change [21]: 0.7
- Weight change [22]: 0.7
- Range [23]: 18
- Average weight [24]: 22
- Average weight [25]: 20.7
- Weight change [26]: 1.6
- ILS at 20 mg/kg [27]: 111%
- T/C [28]: 9
- ILS at 10 mg/kg [29]: 88%
- Range [30]: 23
- Range [31]: 23
- ILS at 40 mg/kg [32]: 155%

SMILES: CCCCCOC(=O)CCC(NC(=O)c1ccc(N(C)Cc2cnc3nc(N)nc(N)c3n2)cc1)C(=O)OCCCCC (stereo not given)
- T/C [33]: 12
- Weight change [34]: 0.6 and 0.4
- Average weight ([24]; 20 mg/kg): 21.5 and 20.8
- Range [35]: 15
- ILS at 20 mg/kg [27]: 55%
- Range [36]: 18
- ILS at 10 mg/kg [29]: 33%
- T/C [37]: 14

— ChEMBL document CHEMBL1122370 (J Med Chem, 1983)
